{"source": "patent US12723063B2", "about": "“GIPR-agonist compounds” (Eli Lilly and Company, priority 2019, dated 2026)", "key": {"[1]": {"target": "T1, human GLP-1 receptor (GLP-1R) (Homo sapiens, UniProt P43220)", "T1 construct": "expressed in transfected cells; host or cells: HEK293", "T1 sequence (P43220 24-463)": "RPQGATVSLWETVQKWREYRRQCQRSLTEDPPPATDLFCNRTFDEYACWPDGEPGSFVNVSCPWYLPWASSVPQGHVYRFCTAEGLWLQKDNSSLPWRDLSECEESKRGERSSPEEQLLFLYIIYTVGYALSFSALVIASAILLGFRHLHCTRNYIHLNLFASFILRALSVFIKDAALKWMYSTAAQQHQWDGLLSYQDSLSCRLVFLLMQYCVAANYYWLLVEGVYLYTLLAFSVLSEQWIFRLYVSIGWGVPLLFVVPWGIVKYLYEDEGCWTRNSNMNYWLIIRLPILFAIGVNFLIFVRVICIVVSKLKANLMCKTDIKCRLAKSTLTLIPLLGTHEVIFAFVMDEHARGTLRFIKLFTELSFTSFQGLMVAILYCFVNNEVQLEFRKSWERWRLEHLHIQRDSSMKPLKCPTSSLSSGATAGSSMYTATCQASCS", "assay": "cAMP functional assay (HTRF) in HEK293 cells in presence of 0.1% casein", "assay_type": "cell-based", "conditions": "HEK293 cells expressing human GLP-1R, geometric mean, read-out: hGLP1R cAMP Rel EC50 nM (SEM, n)"}, "[2]": {"target": "T2, human GcgR (Homo sapiens, UniProt P47871)", "T2 construct": "expressed in transfected cells; crude membranes", "T2 sequence (P47871 26-477)": "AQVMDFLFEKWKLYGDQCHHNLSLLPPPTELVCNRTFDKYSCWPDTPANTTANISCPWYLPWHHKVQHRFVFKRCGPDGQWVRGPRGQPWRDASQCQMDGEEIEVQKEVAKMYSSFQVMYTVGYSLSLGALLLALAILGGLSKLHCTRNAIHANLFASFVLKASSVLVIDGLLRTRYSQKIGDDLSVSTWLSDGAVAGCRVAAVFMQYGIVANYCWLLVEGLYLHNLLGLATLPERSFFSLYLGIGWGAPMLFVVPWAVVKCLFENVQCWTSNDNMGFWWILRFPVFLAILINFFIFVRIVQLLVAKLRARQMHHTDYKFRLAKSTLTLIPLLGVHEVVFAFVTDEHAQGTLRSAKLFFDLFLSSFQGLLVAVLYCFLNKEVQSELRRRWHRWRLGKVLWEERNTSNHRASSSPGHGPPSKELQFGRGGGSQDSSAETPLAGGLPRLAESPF", "assay": "[125I]-Glucagon binding, SPA with WGA beads, 0.1% bacitracin", "conditions": "geometric mean, read-out: hGcgR Ki", "outline": "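SPA competition binding with WGA beads on crude membranes from HEK293 cells stably expressing hGcgR. Buffer: 25 mM HEPES pH 7.4, 2.5 mM CaCl2, 1 mM MgCl2, 0.1% bacitracin, 0.003% Tween-20; 10-point 3-fold dilutions, NSB with 1 μM Gcg.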"}}, "note": "*1 amine or outer side, *2 acyl side, *3 side chain or, on linkers, in order; H or OH if unused. Where a SMILES comes first, the peptide text is derived from it. Side-chain parts run from the residue outwards. [ ]: non-standard residue; d: D form. The star is where a group is joined. C20 diacid = O=C(O)CCCCCCCCCCCCCCCCCCC(=O)*; γGlu = O=C(O)[C@H](CCC(=O)[*:2])N[*:1]; 4Pal = N[C@@H](Cc1ccncc1)C(=O)O; αMeL = CC(C)C[C@](C)(N)C(=O)O; Orn = NCCC[C@H](N)C(=O)O; AEEA = NCCOCCOCC(=O)O; Aib = CC(C)(N)C(=O)O", "data": [{"smiles": "CC[C@H](C)[C@H](NC(=O)[C@H](CCCN)NC(=O)[C@H](CC(=O)O)NC(=O)[C@H](CC(C)C)NC(=O)[C@](C)(CC(C)C)NC(=O)[C@@H](NC(=O)[C@H](CO)NC(=O)[C@H](Cc1ccc(O)cc1)NC(=O)[C@H](CC(=O)O)NC(=O)[C@H](CO)NC(=O)[C@@H](NC(=O)[C@H](Cc1ccccc1)NC(=O)[C@@H](NC(=O)CNC(=O)[C@H](CCC(=O)O)NC(=O)C(C)(C)NC(=O)[C@@H](N)Cc1ccc(O)cc1)[C@@H](C)O)[C@@H](C)CC)[C@@H](C)CC)C(=O)N[C@@H](Cc1c[nH]cn1)C(=O)N[C@@H](CCC(N)=O)C(=O)NC(C)(C)C(=O)N[C@@H](CCC(=O)O)C(=O)N[C@@H](Cc1ccccc1)C(=O)N[C@H](C(=O)N[C@@H](CCC(=O)O)C(=O)N[C@@H](Cc1ccc(O)cc1)C(=O)N[C@@H](CCCCNC(=O)COCCOCCNC(=O)COCCOCCNC(=O)CC[C@H](NC(=O)CCCCCCCCCCCCCCCCCCC(=O)O)C(=O)O)C(=O)N[C@@H](CC(C)C)C(=O)N[C@@H](CCC(=O)O)C(=O)N[C@@H](C)C(=O)NCC(=O)N1CCC[C@H]1C(=O)N[C@@H](CO)C(=O)N[C@@H](CO)C(=O)NCC(=O)N[C@@H](C)C(=O)N1CCC[C@H]1C(=O)N1CCC[C@H]1C(=O)N1CCC[C@H]1C(=O)N[C@@H](CO)C(N)=O)C(C)C", "note": "[Example 104] (H-Y[Aib]EGTFISDYSI[αMeL]LD[Orn]IHQ[Aib]EFVEYK([AEEA-AEEA-γGlu-C20 diacid])LEAGPSSGAPPPS-NH2)", "values": [{"measurement": "EC50", "setting": "[1]", "result": "> 5000", "unit": "nM"}, {"measurement": "Ki", "setting": "[2]", "result": "> 0.96", "unit": "µM"}]}, {"smiles": "CC[C@H](C)[C@H](NC(=O)[C@H](CCCN)NC(=O)[C@H](CC(=O)O)NC(=O)[C@H](CC(C)C)NC(=O)[C@](C)(CC(C)C)NC(=O)[C@@H](NC(=O)[C@H](CO)NC(=O)[C@H](Cc1ccc(O)cc1)NC(=O)[C@H](CC(=O)O)NC(=O)[C@H](CO)NC(=O)[C@@H](NC(=O)[C@H](Cc1ccccc1)NC(=O)[C@@H](NC(=O)CNC(=O)[C@H](CCC(=O)O)NC(=O)C(C)(C)NC(=O)[C@@H](N)Cc1ccc(O)cc1)[C@@H](C)O)[C@@H](C)CC)[C@@H](C)CC)C(=O)N[C@@H](Cc1c[nH]cn1)C(=O)N[C@@H](CCC(N)=O)C(=O)NC(C)(C)C(=O)N[C@@H](CCC(=O)O)C(=O)N[C@@H](Cc1ccccc1)C(=O)N[C@H](C(=O)N[C@@H](CCC(=O)O)C(=O)N[C@@H](Cc1ccc(O)cc1)C(=O)N[C@@H](CCCCNC(=O)COCCOCCNC(=O)COCCOCCNC(=O)CC[C@H](NC(=O)CCCCCCCCCCCCCCCCCCC(=O)O)C(=O)O)C(=O)N[C@@H](CC(C)C)C(=O)N[C@@H](CCC(=O)O)C(=O)N[C@H](C(=O)NCC(=O)N1CCC[C@H]1C(=O)N[C@@H](CO)C(=O)N[C@@H](CO)C(=O)NCC(=O)N[C@@H](C)C(=O)N1CCC[C@H]1C(=O)N1CCC[C@H]1C(=O)N1CCC[C@H]1C(=O)N[C@@H](CO)C(N)=O)[C@@H](C)O)C(C)C", "note": "[Example 105] (H-Y[Aib]EGTFISDYSI[αMeL]LD[Orn]IHQ[Aib]EFVEYK([AEEA-AEEA-γGlu-C20 diacid])LETGPSSGAPPPS-NH2)", "values": [{"measurement": "EC50", "setting": "[1]", "result": "> 5000", "unit": "nM"}, {"measurement": "Ki", "setting": "[2]", "result": "> 0.96", "unit": "µM"}]}, {"smiles": "CC[C@H](C)[C@H](NC(=O)[C@H](CCCN)NC(=O)[C@H](CC(=O)O)NC(=O)[C@H](CC(C)C)NC(=O)[C@](C)(CC(C)C)NC(=O)[C@@H](NC(=O)[C@H](CO)NC(=O)[C@H](Cc1ccc(O)cc1)NC(=O)[C@H](CC(=O)O)NC(=O)[C@H](CO)NC(=O)[C@@H](NC(=O)[C@H](Cc1ccccc1)NC(=O)[C@@H](NC(=O)CNC(=O)[C@H](CCC(=O)O)NC(=O)C(C)(C)NC(=O)[C@@H](N)Cc1ccc(O)cc1)[C@@H](C)O)[C@@H](C)CC)[C@@H](C)CC)C(=O)N[C@@H](Cc1c[nH]cn1)C(=O)N[C@@H](CCC(N)=O)C(=O)NC(C)(C)C(=O)N[C@@H](CCC(=O)O)C(=O)N[C@@H](Cc1ccccc1)C(=O)N[C@H](C(=O)N[C@@H](CCC(=O)O)C(=O)N[C@@H](Cc1ccc(O)cc1)C(=O)N[C@@H](CCCCNC(=O)COCCOCCNC(=O)COCCOCCNC(=O)CC[C@H](NC(=O)CCCCCCCCCCCCCCCCCCC(=O)O)C(=O)O)C(=O)N[C@@H](CC(C)C)C(=O)N[C@@H](CCC(=O)O)C(=O)N[C@@H](CCC(N)=O)C(=O)NCC(=O)N1CCC[C@H]1C(=O)N[C@@H](CO)C(=O)N[C@@H](CO)C(=O)NCC(=O)N[C@@H](C)C(=O)N1CCC[C@H]1C(=O)N1CCC[C@H]1C(=O)N1CCC[C@H]1C(=O)N[C@@H](CO)C(N)=O)C(C)C", "note": "[Example 106] (H-Y[Aib]EGTFISDYSI[αMeL]LD[Orn]IHQ[Aib]EFVEYK([AEEA-AEEA-γGlu-C20 diacid])LEQGPSSGAPPPS-NH2)", "values": [{"measurement": "EC50", "setting": "[1]", "result": "> 5000", "unit": "nM"}, {"measurement": "Ki", "setting": "[2]", "result": 0.304, "unit": "µM"}]}, {"smiles": "CC[C@H](C)[C@H](NC(=O)[C@H](CCCN)NC(=O)[C@H](CC(=O)O)NC(=O)[C@H](CC(C)C)NC(=O)[C@](C)(CC(C)C)NC(=O)[C@@H](NC(=O)[C@H](CO)NC(=O)[C@H](Cc1ccc(O)cc1)NC(=O)[C@H](CC(=O)O)NC(=O)[C@H](CO)NC(=O)[C@@H](NC(=O)[C@H](Cc1ccccc1)NC(=O)[C@@H](NC(=O)CNC(=O)[C@H](CCC(=O)O)NC(=O)C(C)(C)NC(=O)[C@@H](N)Cc1ccc(O)cc1)[C@@H](C)O)[C@@H](C)CC)[C@@H](C)CC)C(=O)N[C@@H](Cc1c[nH]cn1)C(=O)N[C@@H](CCC(N)=O)C(=O)NC(C)(C)C(=O)N[C@@H](CCC(=O)O)C(=O)N[C@@H](Cc1ccccc1)C(=O)N[C@H](C(=O)N[C@@H](CCC(=O)O)C(=O)N[C@@H](Cc1ccc(O)cc1)C(=O)N[C@@H](CCCCNC(=O)COCCOCCNC(=O)COCCOCCNC(=O)CC[C@H](NC(=O)CCCCCCCCCCCCCCCCCCC(=O)O)C(=O)O)C(=O)N[C@@H](CC(C)C)C(=O)N[C@@H](CCC(=O)O)C(=O)NCC(=O)NCC(=O)N1CCC[C@H]1C(=O)N[C@@H](CO)C(=O)N[C@@H](CO)C(=O)NCC(=O)N[C@@H](C)C(=O)N1CCC[C@H]1C(=O)N1CCC[C@H]1C(=O)N1CCC[C@H]1C(=O)N[C@@H](CO)C(N)=O)C(C)C", "note": "[Example 107] (H-Y[Aib]EGTFISDYSI[αMeL]LD[Orn]IHQ[Aib]EFVEYK([AEEA-AEEA-γGlu-C20 diacid])LEGGPSSGAPPPS-NH2)", "values": [{"measurement": "EC50", "setting": "[1]", "result": "> 5000", "unit": "nM"}, {"measurement": "Ki", "setting": "[2]", "result": 0.347, "unit": "µM"}]}, {"smiles": "CC[C@H](C)[C@H](NC(=O)[C@H](CCCN)NC(=O)[C@H](CC(=O)O)NC(=O)[C@H](CC(C)C)NC(=O)[C@](C)(CC(C)C)NC(=O)[C@@H](NC(=O)[C@H](CO)NC(=O)[C@H](Cc1ccc(O)cc1)NC(=O)[C@H](CC(=O)O)NC(=O)[C@H](CO)NC(=O)[C@@H](NC(=O)[C@H](Cc1ccccc1)NC(=O)[C@@H](NC(=O)CNC(=O)[C@H](CCC(=O)O)NC(=O)C(C)(C)NC(=O)[C@@H](N)Cc1ccc(O)cc1)[C@@H](C)O)[C@@H](C)CC)[C@@H](C)CC)C(=O)N[C@@H](Cc1c[nH]cn1)C(=O)N[C@@H](CCC(N)=O)C(=O)NC(C)(C)C(=O)N[C@@H](CC(=O)O)C(=O)N[C@@H](Cc1ccccc1)C(=O)N[C@H](C(=O)N[C@@H](CCC(=O)O)C(=O)N[C@@H](Cc1ccncc1)C(=O)N[C@@H](CCCCNC(=O)COCCOCCNC(=O)COCCOCCNC(=O)CC[C@H](NC(=O)CCCCCCCCCCCCCCCCCCC(=O)O)C(=O)O)C(=O)N[C@@H](CC(C)C)C(=O)N[C@@H](CCC(=O)O)C(=O)NCC(=O)NCC(=O)N1CCC[C@H]1C(=O)N[C@@H](CO)C(=O)N[C@@H](CO)C(=O)NCC(=O)N[C@@H](C)C(=O)N1CCC[C@H]1C(=O)N1CCC[C@H]1C(=O)N1CCC[C@H]1C(=O)N[C@@H](CO)C(N)=O)C(C)C", "note": "[Example 108] (H-Y[Aib]EGTFISDYSI[αMeL]LD[Orn]IHQ[Aib]DFVE[4Pal]K([AEEA-AEEA-γGlu-C20 diacid])LEGGPSSGAPPPS-NH2)", "values": [{"measurement": "EC50", "setting": "[1]", "result": "> 5000", "unit": "nM"}, {"measurement": "Ki", "setting": "[2]", "result": "> 0.96", "unit": "µM"}]}, {"smiles": "CC[C@H](C)[C@H](NC(=O)[C@H](CCCCN)NC(=O)[C@H](CC(=O)O)NC(=O)[C@H](CC(C)C)NC(=O)[C@](C)(CC(C)C)NC(=O)[C@@H](NC(=O)[C@H](CO)NC(=O)[C@H](Cc1ccc(O)cc1)NC(=O)[C@H](CC(=O)O)NC(=O)[C@H](CO)NC(=O)[C@@H](NC(=O)[C@H](Cc1ccccc1)NC(=O)[C@@H](NC(=O)CNC(=O)[C@H](CCC(=O)O)NC(=O)C(C)(C)NC(=O)[C@@H](N)Cc1ccc(O)cc1)[C@@H](C)O)[C@@H](C)CC)[C@@H](C)CC)C(=O)N[C@@H](Cc1c[nH]cn1)C(=O)N[C@@H](CCC(N)=O)C(=O)NC(C)(C)C(=O)N[C@@H](CC(=O)O)C(=O)N[C@@H](Cc1ccccc1)C(=O)N[C@H](C(=O)N[C@@H](CCC(=O)O)C(=O)N[C@@H](Cc1ccncc1)C(=O)N[C@@H](CCCCNC(=O)COCCOCCNC(=O)COCCOCCNC(=O)CC[C@H](NC(=O)CCCCCCCCCCCCCCCCCCC(=O)O)C(=O)O)C(=O)N[C@@H](CC(C)C)C(=O)N[C@@H](CCC(=O)O)C(=O)NCC(=O)NCC(=O)N1CCC[C@H]1C(=O)N[C@@H](CO)C(=O)N[C@@H](CO)C(=O)NCC(=O)N[C@@H](C)C(=O)N1CCC[C@H]1C(=O)N1CCC[C@H]1C(=O)N1CCC[C@H]1C(=O)N[C@@H](CO)C(N)=O)C(C)C", "note": "[Example 109] (H-Y[Aib]EGTFISDYSI[αMeL]LDKIHQ[Aib]DFVE[4Pal]K([AEEA-AEEA-γGlu-C20 diacid])LEGGPSSGAPPPS-NH2)", "values": [{"measurement": "EC50", "setting": "[1]", "result": "> 5000", "unit": "nM"}, {"measurement": "Ki", "setting": "[2]", "result": "> 0.96", "unit": "µM"}]}]}
